In patent publication US20250261636A1, “QUATERNARY AMMONIUM SANITIZING COMPOSITION” (ECOLAB USA INC., priority 2020, published 2025):
Several values for one entry are separate records, joined by “and”; a condition that tells them apart may be missing. Identical values can stand only once.

Tests used:
[1] = test system: Staphylococcus aureus ATCC 6538; assay: AOAC Method 960.09 Germicidal and Detergent Sanitizing Action of Disinfectants, food contact sanitizing suspension test; format: cell-based; conditions: 30 ppm, pH 5, 120° F.
Method: (§1) The microbial efficacy of the multipurpose sanitizing composition was evaluated for food contact applications. The purpose of the testing is to determine the efficacy of compositions used for sanitizing food contact surfaces, which in the evaluations were pre-cleaned, non-porous surfaces using AOAC Method 960.09 Germicidal and Detergent Sanitizing Action of Disinfectants. […] The test organisms included Staphylococcus aureus ATCC 6538 and Escherichia coli ATCC 11229.
(§2) The pH was adjusted by use of a polycarboxylic acid (unless otherwise noted, such as the polycarboxylate citrate tested at pH 8). In this screening test pH 9, 8, 7, 5, 4, and 3 were tested. “NT” indicates a condition was “Not Tested.”

[2] = test system: Escherichia coli ATCC 11229; assay: as above; format: cell-based; conditions: for Log Reduction: per replicate
Method: as §1, §2

## CCCCCCCCCC[N+](C)(C)CCCCCCCCCC.[Cl-] [Bardac 2250, didecyl dimethyl ammonium chloride]
[1]
  log reduction S. aureus (ATCC 6538): 6.88 log
[2]; 30 ppm, pH 5, 120° F.
  Average Log Reduction: 6.83 log
[2]; 30 ppm, pH 7, 120° F.
  Average Log Reduction: 3.33 log
  CFU - Dilution 1E−01: TNTC
  CFU - Dilution 1E−02: TNTC
  CFU/mL: 3.00E+04 CFU/mL
  Log Reduction: 3.33 log
[2]; 30 ppm, pH 9, 120° F.
  Average Log Reduction: 3.33 log
  CFU - Dilution 1E−01: TNTC
  CFU - Dilution 1E−02: TNTC
  CFU/mL: 3.00E+04 CFU/mL
  Log: 4.48
  Log Reduction: 3.33 log
[2]; 40 ppm, pH 7, 120° F.
  Average Log Reduction: 5.02 log
[2]; 40 ppm, pH 9, 120° F.
  Average Log Reduction: 4.63 log
  CFU - Dilution 1E−01: 192 CFU and 120 CFU
  CFU - Dilution 1E−02: 12 CFU and 14 CFU
  CFU/mL: 1.85E+03 CFU/mL and 1.22E+03 CFU/mL
  Log: 3.27 and 3.09
  Log Reduction: 4.54 log and 4.72 log
[2]; 50 ppm, pH 7, 120° F.
  log reduction E. coli (ATCC 11229): 6.71 log
